# From article PMC10094418, “Butein Inhibits Cell Growth by Blocking the IL-6/IL-6Rα Interaction in Human Ovarian Cancer and by Regulation of the IL-6/STAT3/FoxO3a Pathway” (International Journal of Molecular Sciences, 2023)
# Key:
# [1] = system: A2780 xenograft tumors; assay: A2780 mouse xenograft; type: in vivo, BALB/c nude mice
# Description: Adult BALB/c nude mice aged 5 weeks (n = 5, body weight 17−19 g) were purchased from Orient Bio (Seongnam, Republic of Korea) and reared in aseptic conditions with 55 ± 10% humidity and 25 ± 2 °C temperature under a 12 h/12 h light-dark cycle (Catholic University protocol). All animal experimental work was carried out in compliance with the legal obligations and federal guidelines and legal obligations for the care and maintenance of laboratory animals. All animal experiments were conducted with the approval of the Institutional Animal Care and Use Committee of the Catholic University of Korea (approval number: CUK-IACUC-2019-026-01). A2780 cell suspension (1 × 10^7 cells/200 μL in 1 × PBS) was injected subcutaneously into the dorsal scapula area of each mouse. The tumor developed 14 days after implantation to a size of approximately 150 mm^3. The mice were then divided randomly into vehicle control (5% DMSO), siltuximab (10 mg/kg), and butein (2 or 4 mg/kg) groups. All drugs were dissolved in 0.05% carboxymethylcellulose sodium salt (CMC) (Sigma-Aldrich, St. Louis, MO, USA) and injected intraperitoneally five times a week for three weeks. The tumor size was measured using calipers once every 2 days. The tumor volume was calculated using a simplified equation (length × width^2 × 0.5). Each tumor was harvested 22 days post-treatment.
# [2] = system: SKOV3 cells; assay: Wound-healing assay, SKOV3; type: cell-based, human; conditions: 24 h and 48 h, concentration-dependent, vs control, 0.1% DMSO and siltuximab
# Description: A2780 and SKOV3 cells were cultured to 90% confluence in 6-well plates. After changing to a serum-free medium, the cell monolayer was scraped to artificially form homogeneous wound with uniform thickness. The drug treatment for each well was carried out in the following manner: siltuximab at 50 μM; butein at 10, 25, and 50 μM. The cells were imaged at 0, 24, and 48 h.
# [3] = biological target: T1, IL-6 (Homo sapiens, UniProt P05231); assay: Surface plasmon resonance, immobilized IL-6; type: binding; conditions: SPR, CM5 chip, steady-state KD
# T1 construct: purchased PeproTech
# T1 sequence (P05231 30-212): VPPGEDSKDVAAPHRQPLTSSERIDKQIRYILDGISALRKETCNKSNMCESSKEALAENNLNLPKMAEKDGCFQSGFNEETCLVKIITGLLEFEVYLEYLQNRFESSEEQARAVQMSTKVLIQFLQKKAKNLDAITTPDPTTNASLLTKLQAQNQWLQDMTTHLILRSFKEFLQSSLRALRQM
# Description: (§1) The surface plasmon resonance (SPR) assay was measured using the BIAcore T200 model (GE Healthcare, Chicago, IL, USA) with HBS-EP buffer (1×HBS-EP, GE Healthcare, Chicago, IL, USA) containing 5% dimethyl sulfoxide (DMSO; Sigma-Aldrich, St. Louis, MO, USA). The pH scouting for IL-6 (PeproTech, Rocky Hill, NJ, USA), IL-6Rα (PeproTech, Rocky Hill, NJ, USA), and gp130 (Sino Biological, Beijing, China, or ANRT, Daejeon, Korea) immobilization was performed in 10 mM acetate buffer at pH 4.5. IL-6, IL-6Rα, and gp130 were immobilized on a CM5 chip at 750, 1200, and 2000 response units (RU). Butein was injected into the IL-6, IL-6Rα and gp130-immobilized flow cell at concentrations of 10, 20, 30, 40, 50, 60, 70, 80, 90, and 100 μM with a 25 μL/min flow rate for 150 s and allowed to dissociate for 300 s. Steady-state KD was determined via the T-200 BIAevaluation software (GE Healthcare, Chicago, IL, USA).
# [4] = system: IL-6 signaling in HEK-Blue™ IL-6 cells; assay: IL-6 inhibitory bioassay with HEK-Blue IL-6 cells (SEAP activity); type: cell-based, human; conditions: 10 ng/mL IL-6, 24 h
# Description: HEK-Blue™ IL-6 cells were obtained from InvivoGen (San Diego, CA, USA). In a 96-well plate, 20 μL butein at various concentrations (0, 3.125, 6.25, 12.5, 25, and 50 μM) were added to the cell suspension (50,000 cells/200 μL). Following this, the recombinant human IL-6 (BioLegend, San Diego, CA, USA) was administered at 10 ng/mL. After 24 h, 20 μL of the IL-6-treated cell suspension was added to 180 μL of QUANTI-Blue™ Solution (JnvivoGen, San Diego, CA, USA) in a new 96-well plate. After 2 h of incubation at 37 °C, the spectrophotometric absorbance between 620 and 655 nm was recorded.
# [5] = biological target: T2, gp130 (Homo sapiens, UniProt P40189); assay: Surface plasmon resonance, immobilized gp130; type: binding; conditions: SPR, CM5 chip, steady-state KD
# T2 construct: purchased Sino Biological or ANRT
# T2 sequence (P40189 23-918): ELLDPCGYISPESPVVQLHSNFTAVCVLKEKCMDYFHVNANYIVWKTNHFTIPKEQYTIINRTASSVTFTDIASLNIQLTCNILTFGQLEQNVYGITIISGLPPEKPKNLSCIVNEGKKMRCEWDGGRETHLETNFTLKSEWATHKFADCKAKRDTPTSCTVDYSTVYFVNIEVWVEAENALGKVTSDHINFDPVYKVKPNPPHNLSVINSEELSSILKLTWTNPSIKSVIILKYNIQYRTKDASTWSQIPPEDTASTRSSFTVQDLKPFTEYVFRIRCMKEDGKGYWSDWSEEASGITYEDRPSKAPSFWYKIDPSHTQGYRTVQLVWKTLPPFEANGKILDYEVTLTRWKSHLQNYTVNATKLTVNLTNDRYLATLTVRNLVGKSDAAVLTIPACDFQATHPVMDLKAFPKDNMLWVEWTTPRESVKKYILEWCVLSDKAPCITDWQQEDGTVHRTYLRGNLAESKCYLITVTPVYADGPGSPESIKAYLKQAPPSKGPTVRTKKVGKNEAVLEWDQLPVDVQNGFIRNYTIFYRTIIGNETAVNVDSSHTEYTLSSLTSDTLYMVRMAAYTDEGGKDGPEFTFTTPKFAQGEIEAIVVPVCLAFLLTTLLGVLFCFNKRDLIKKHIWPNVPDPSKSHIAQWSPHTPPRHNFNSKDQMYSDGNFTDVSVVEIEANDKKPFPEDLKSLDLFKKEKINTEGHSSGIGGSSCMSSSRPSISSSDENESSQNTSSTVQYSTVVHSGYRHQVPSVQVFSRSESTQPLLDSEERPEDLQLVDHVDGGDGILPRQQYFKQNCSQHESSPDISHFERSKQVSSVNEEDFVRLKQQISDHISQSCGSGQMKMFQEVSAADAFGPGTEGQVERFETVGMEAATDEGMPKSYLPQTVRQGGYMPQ
# Description: as §1
smiles,measurement,setting,value
O=C(/C=C/c1ccc(O)c(O)c1)c1ccc(O)cc1O [butein],Tumor growth,"[1]; 2 or 4 mg/kg i.p. five times a week, vs vehicle and siltuximab-treated group",significant inhibition
same,Total mouse weight,[1]; during the experimental period,no difference
same,"Cell migration, SKOV3",[2],reduced
same,Kd,[3],91.4 µM
same,Inhibition of SEAP signal of HEK-Blue IL-6,[4]; 0-50 μM,maximum inhibition
same,"LogIC50, HEK-Blue IL-6 SEAP activity",[4],1.049±0.524 μM
same,IC50,"[4]; Homo sapiens, HEK-Blue IL-6",12.9 ± 0.15 µM
same,Kd,[5],616 µM
